Measured values reported in patent US20110230472A1, “RING-FUSED AZOLE DERIVATIVE HAVING PI3K-INHIBITING ACTIVITY” (Shionogi & Co., Ltd., priority 2008, published 2011).

target: PI-3 kinase γ (Homo sapiens, UniProt P48736); experiment: PI3Kγ inhibitory activity, PI3-kinase HTRF assay (inhibition ratio); format: biochemical; settings: 0.5 h; PI3Kγ, compound at 10 μM
Protocol: The PI3Kγ inhibitory activity of a compound was evaluated using PI3-kinase HTRF™ assay (Millipore) according to the following procedure:
To each well of a testing plate, 5 μL of a compound solution containing 10% DMSO (200 μmol/L or 40 μmol/L as the concentration of the compound), 5 μL of a substrate solution (40 μmol/L phosphatidylinositol (4,5)-bisphosphate, 20 mmol/L MgCl2, 10 mmol/L DTT), and 5 μL of a enzyme solution (80 μg/mL PI-3 kinase γ, 10 mmol/L MgCl2, 5 mmol/L DTT) were added, and then allowed to stand for 10 minutes.
Then, 5 μL of a reaction solution (40 μmol/L ATP, 10 mmol/L MgCl2, 5 mmol/L DTT) was added thereto. After reacting for 30 minutes at room temperature, 5 μL of a solution containing EDTA and biotinylated phosphatidylinositol (3,4,5)-triphosphate were added to quench the reaction.
5 μL of a detection reagent containing a europium-labeled anti-GST antibody, the GST-tagged PH domain, and allophycocyanin-labeled streptavidin was added thereto. After 18 hours, HTRF (excitation wavelength: 330 nm, measured wavelengths: 620 nm and 665 nm) was measured.
HTRF ratio was defined as the value obtained by dividing the amount of fluorescence obtained at the measured wavelength 665 nm by the amount of fluorescence obtained at 620 nm. The HTRF ratio in the absence of a compound was defined as 100% activity and the HTRF ratio in the absence of PI-3 kinase γ was defined as 0% activity to calculate an inhibition ratio which was defined as the PI3Kγ inhibitory activity of a compound at 50 μmol/L or 10 μmol/L.

PI-3 kinase γ, sequence (P48736 whole entry): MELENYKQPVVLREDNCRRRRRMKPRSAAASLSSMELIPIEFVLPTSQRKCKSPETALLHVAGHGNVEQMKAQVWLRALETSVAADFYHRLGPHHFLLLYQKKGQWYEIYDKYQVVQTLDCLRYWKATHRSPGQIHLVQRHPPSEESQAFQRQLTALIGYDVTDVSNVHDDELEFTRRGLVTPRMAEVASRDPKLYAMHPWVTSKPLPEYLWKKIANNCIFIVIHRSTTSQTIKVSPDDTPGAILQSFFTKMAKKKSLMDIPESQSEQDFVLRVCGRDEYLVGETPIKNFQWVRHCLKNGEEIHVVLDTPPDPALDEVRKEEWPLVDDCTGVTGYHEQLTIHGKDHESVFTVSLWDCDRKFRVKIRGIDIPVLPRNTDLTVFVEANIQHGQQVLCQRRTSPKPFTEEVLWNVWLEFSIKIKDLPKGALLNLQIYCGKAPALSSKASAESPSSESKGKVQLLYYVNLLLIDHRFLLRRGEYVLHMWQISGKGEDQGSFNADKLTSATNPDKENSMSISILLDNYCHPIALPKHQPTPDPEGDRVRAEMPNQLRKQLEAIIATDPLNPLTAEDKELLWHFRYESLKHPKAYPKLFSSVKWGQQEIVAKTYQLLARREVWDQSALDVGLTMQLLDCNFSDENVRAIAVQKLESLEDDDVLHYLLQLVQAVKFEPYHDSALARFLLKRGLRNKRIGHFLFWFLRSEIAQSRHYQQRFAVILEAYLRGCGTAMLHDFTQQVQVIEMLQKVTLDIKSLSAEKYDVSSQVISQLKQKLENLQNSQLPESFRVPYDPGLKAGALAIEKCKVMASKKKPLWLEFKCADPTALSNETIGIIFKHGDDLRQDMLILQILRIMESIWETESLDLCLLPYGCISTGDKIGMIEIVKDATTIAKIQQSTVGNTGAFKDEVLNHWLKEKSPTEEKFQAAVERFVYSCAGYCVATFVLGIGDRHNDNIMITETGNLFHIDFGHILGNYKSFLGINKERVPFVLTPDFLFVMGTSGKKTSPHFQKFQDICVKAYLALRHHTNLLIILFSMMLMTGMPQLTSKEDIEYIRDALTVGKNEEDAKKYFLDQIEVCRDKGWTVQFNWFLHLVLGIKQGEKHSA

inhibition at 10 µM	SMILES
≥ 95%	COc1cc(N2CCc3nc(NC(=O)Cc4cc(OC)c(OC)c(OC)c4)sc3C2)nc(OC)n1 [Compound I-268]
≥ 95%	COc1cc(N2CCc3nc(NC(=O)NCCC(=O)N4[C@H](C)CCC[C@@H]4C)sc3C2)nc(OC)n1 [Compound I-271]
89%	COc1cc(N2CCc3nc(NC(=O)CC(=O)OC(C)(C)C)sc3C2)nc(OC)n1 [Compound I-264]

same assay, conditions: 0.5 h; PI3Kγ, compound at 50 μM

inhibition at 50 µM	SMILES
81%	CCOC(=O)CNC(=O)Nc1cc2n(n1)CCN2c1ccccc1 [Compound I-129]
≥ 95%	CNC(=O)Nc1cc2n(n1)CCN2C(=O)OC(C)(C)C [Compound I-8]
92%	COc1cccc(C(=O)Nc2cc3n(n2)CCN3c2cccc(Cl)c2)c1 [Compound I-239]
≥ 95%	CNC(=O)Nc1cc2n(n1)CCN2c1cc(Br)cc(C(=O)NCCOC)c1 [Compound I-183]
81%	CS(=O)(=O)Nc1ccc(CC(=O)Nc2cc3n(n2)CCN3c2cccc(Cl)c2)cc1 [Compound I-243]
80%	CNC(=O)Nc1nc2c(s1)CN(c1cc(Oc3ccccc3)nc(O)n1)CC2 [Compound I-151]
≥ 95%	CNC(=O)Nc1cc2n(n1)CCN2c1ccc(C(=O)N(C)C)cc1 [Compound I-169]
≥ 95%	CNC(=O)Nc1cc2n(n1)CCN2c1ccc(C(=O)N(C)C)s1 [Compound I-226]
83%	CNC(=O)Nc1cc2n(n1)CCN2c1ccc(OC)cc1 [Compound I-114]
≥ 95%	CNC(=O)Nc1cc2n(n1)CCN2c1cccnc1 [Compound I-80]
≥ 95%	CNC(=O)Nc1cc2n(n1)CCN2c1cccc(C(C)=O)c1 [Compound I-165]
83%	COc1cc(N2CCc3nc(NC(=O)[C@H](O)c4ccccc4)sc3C2)nc(OC)n1 [Compound I-257]
≥ 95%	CNC(=O)Nc1cc2n(n1)CCN2c1ccccc1 [Compound I-50]
≥ 95%	CCOC(=O)c1ccc(N2CCn3nc(NC(=O)NC)cc32)cc1 [Compound I-85]
≥ 95%	CNC(=O)Nc1cc2n(n1)CCN2c1ccc2ccccc2c1 [Compound I-176]
≥ 95%	CNC(=O)Nc1nc2c(s1)CN(c1cc(C(=O)NCCO)nc(Cl)n1)CC2 [Compound I-170]
≥ 95%	CC(=O)Nc1cc2n(n1)CCN2C(=O)OC(C)(C)C [Compound I-130]
92%	CNC(=O)Nc1cc2n(n1)CCN2c1cc(Br)cc(C(=O)OC(C)(C)C)c1 [Compound I-167]
≥ 95%	COc1cc(N2CCc3nc(NC(=O)NCCC(=O)OC(C)(C)C)sc3C2)nc(OC)n1 [Compound I-143]
≥ 95%	COc1cc(N2CCc3nc(NC(=O)NCCC(=O)N4CCOCC4)sc3C2)nc(OC)n1 [Compound I-207]
89%	CCOC(=O)c1ccc(N2CCn3nc(NC(=O)NC)cc32)s1 [Compound I-211]
≥ 95%	CNC(=O)Nc1cc2n(n1)CCN2c1cc(C(=O)N2CCOCC2)cc(C2=CCCCC2)c1 [Compound I-231]
≥ 95%	CNC(=O)Nc1nc2c(s1)CN(c1cc(Cl)ncn1)CC2 [Compound I-106]
≥ 95%	CNC(=O)Nc1cc2n(n1)CCN2c1ccc2c(c1)CCC2=O [Compound I-193]
≥ 95%	CNC(=O)Nc1cc2n(n1)CCN(c1cc(OC)nc(OC)n1)C2 [Compound I-133]
≥ 95%	CNC(=O)Nc1cc2n(n1)CCN2c1ccc2c(c1)NC(=O)CC2 [Compound I-227]

same assay, conditions: 0.5 h; compound at 10 μmol/L

SMILES	inhibition at 10 µM
COc1cc(N2CCc3nc(NC(=O)N4CCC(=O)N5CCOCC5C4=O)sc3C2)nc(OC)n1 (stereo not drawn) [Compound I-304]	89%
COc1cccc(N2CCn3nc(NC(=O)CCNC(=O)OC(C)(C)C)cc32)c1 [Compound I-293]	86%
COc1cc(N2CCc3nc(NC(=O)Nc4ccc(C(C)(C)C)cc4)sc3C2)nc(OC)n1 [Compound I-289]	90%
COc1cc(N2CCc3nc(NC(=O)Nc4ccsc4)sc3C2)nc(OC)n1 [Compound I-297]	91%

Other lines, results leading:

inhibition at 10 µM	SMILES
≥ 95%	CN1CCc2cc(N3CCn4nc(NC(=O)c5cccc(OC(C)(C)C(=O)O)c5)cc43)ccc2C1=O [Compound I-474]
≥ 95%	COc1cc(N2CCc3nc(NC(=O)NCCC(=O)N4CCC[C@H]4C(=O)NC(C)(C)C)sc3C2)nc(OC)n1 [Compound I-311]
≥ 95%	CC(Oc1cccc(C(=O)Nc2cc3n(n2)CCN3c2ccc3c(c2)CCN(C)C3=O)c1)C(N)=O (stereo not drawn) [Compound I-468]
87%	COc1cc(N2CCc3nc(NC(=O)NCCC(=O)N4CCOCC4(C)C)sc3C2)nc(OC)n1 [Compound I-328]
88%	CNC(=O)Nc1nc2c(s1)CN(c1cc(Cl)nc(OC)n1)CC2 [Compound I-333]
≥ 95%	CN1CCc2cc(N3CCn4nc(NC(=O)c5csc(S(=O)(=O)N6CCCC6)c5)cc43)ccc2C1=O [Compound I-436]
79%	CC(C)NC(=O)Nc1cccc(C(=O)Nc2cc3n(n2)CCN3c2ccc3c(c2)CCN(C)C3=O)c1 [Compound I-470]
≥ 95%	CN1CCc2cc(N3CCn4nc(NC(=O)c5ccc6[nH]cnc6c5)cc43)ccc2C1=O [Compound I-349]
≥ 95%	CN1CCc2cc(N3CCn4nc(NC(=O)c5ccncc5)cc43)ccc2C1=O [Compound I-360]
≥ 95%	COc1cccc(C(=O)N2CCc3nc(NC(=O)Nc4ccccc4C(=O)NC(C)C)sc3C2)c1 [Compound I-484]
86%	COc1cc(N2CCc3nc(NC(=O)NCC4(C(=O)NC(C)C)CC4)sc3C2)nc(OC)n1 [Compound I-546]
78%	CN1CCc2cc(N3CCn4nc(NC(=O)c5ccc(C(N)=O)s5)cc43)ccc2C1=O [Compound I-404]
92%	CN1CCc2cc(N3CCn4nc(NC(=O)c5ccc(C(=O)O)cc5)cc43)ccc2C1=O [Compound I-524]
≥ 95%	COc1cccc(N2CCn3nc(NC(=O)CCCCC(=O)O)cc32)c1 [Compound I-315]
84%	COc1cc(N2CCc3nc(NC(=O)Nc4ccccc4Cl)sc3C2)nc(OC)n1 [Compound I-430]
≥ 95%	CN1CCc2cc(N3CCn4nc(NC(=O)c5cnc(Br)s5)cc43)ccc2C1=O [Compound I-377]
88%	COc1nc(Cl)cc(N2CCc3nc(NC(C)=O)sc3C2)n1 [Compound I-334]
88%	COc1cc(N2CCc3nc(NC(=O)C4CCCCC4)sc3C2)nc(OC)n1 [Compound I-552]
≥ 95%	CN1CCc2cc(N3CCn4nc(NC(=O)c5ccc(N6CCCC6)s5)cc43)ccc2C1=O [Compound I-371]
76%	COc1cc(N2CCc3nc(NC(=O)N4CC(C(=O)NC(C)C)C4)sc3C2)nc(OC)n1 [Compound I-528]
76%	Cc1cccc(C(=O)N2CCc3nc(NC(=O)Nc4ccccc4C(=O)NC(C)C)sc3C2)c1 [Compound I-514]

same assay, conditions: 0.5 h; compound at 50 μmol/L

inhibition at 50 µM	SMILES
82%	CN1CCc2cc(N3CCn4nc(NC(=O)c5csc6ccccc56)cc43)ccc2C1=O [Compound I-373]
≥ 95%	CN1CCc2cc(N3CCn4nc(NC(=O)C5CCN(C(=O)OC(C)(C)C)C5)cc43)ccc2C1=O (stereo not drawn) [Compound I-350]
81%	CN1CCc2cc(N3CCn4nc(NC(=O)C(O)c5ccccc5)cc43)ccc2C1=O (stereo not drawn) [Compound I-352]
